Measured values taken from PubChem BioAssay (NCI).
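Method: 48-hour compound exposure of cells in 96-well plates, five concentrations, linear interpolation of endpoints. The concentration for full growth arrest is given as TGI.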

Columns and labels:
Test in all cases: inhibition of tumour cell growth, NCI panel, 48 h
HOP-62 NSCLC = system: HOP-62 NSCLC
PC-3 prostate = system: PC-3 prostate
HCT-116 colon = system: HCT-116 colon
NCI-H226 lung = system: NCI-H226 lung
M14 melanoma = system: M14 melanoma
MOLT-4 leukemia = system: MOLT-4 leukemia
COLO 205 colon = system: COLO 205 colon
CCRF-CEM leukemia = system: CCRF-CEM leukemia
UO-31 renal = system: UO-31 renal
A498 renal = system: A498 renal
HCT-15 colon = system: HCT-15 colon
RPMI-8226 leukemia = system: RPMI-8226 leukemia
NCI-H23 lung = system: NCI-H23 lung
SK-MEL-5 melanoma = system: SK-MEL-5 melanoma
RXF 393 renal = system: RXF 393 renal
UACC-62 melanoma = system: UACC-62 melanoma
SK-OV-3 ovarian = system: SK-OV-3 ovarian
UACC-257 melanoma = system: UACC-257 melanoma
SF-295 CNS = system: SF-295 CNS
MDA-MB-435 = system: MDA-MB-435
MDA-MB-231 breast = system: MDA-MB-231 breast
SK-MEL-2 melanoma = system: SK-MEL-2 melanoma
LOX IMVI melanoma = system: LOX IMVI melanoma
DU-145 prostate = system: DU-145 prostate
SF-268 CNS = system: SF-268 CNS
SN12C renal = system: SN12C renal
ACHN renal = system: ACHN renal
TK-10 renal = system: TK-10 renal
SNB-19 CNS = system: SNB-19 CNS
HL-60(TB) leukemia = system: HL-60(TB) leukemia
NCI-H460 lung = system: NCI-H460 lung
T-47D breast = system: T-47D breast
BT-549 breast = system: BT-549 breast
EKVX NSCLC = system: EKVX NSCLC
786-0 renal = system: 786-0 renal
SK-MEL-28 melanoma = system: SK-MEL-28 melanoma
CAKI-1 renal = system: CAKI-1 renal
HOP-92 NSCLC = system: HOP-92 NSCLC
OVCAR-8 ovarian = system: OVCAR-8 ovarian
HS 578T breast = system: HS 578T breast
SNB-75 CNS = system: SNB-75 CNS
K-562 leukemia = system: K-562 leukemia
OVCAR-3 ovarian = system: OVCAR-3 ovarian
U251 CNS = system: U251 CNS
KM12 colon = system: KM12 colon
NCI/ADR-RES ovarian = system: NCI/ADR-RES ovarian
SW-620 colon = system: SW-620 colon
HCC-2998 colon = system: HCC-2998 colon
HT29 colon = system: HT29 colon
MDA-N = system: MDA-N
IGROV1 ovarian = system: IGROV1 ovarian
OVCAR-5 ovarian = system: OVCAR-5 ovarian
OVCAR-4 ovarian = system: OVCAR-4 ovarian
A549 NSCLC = system: A549 NSCLC
SF-539 CNS = system: SF-539 CNS
SR leukemia = system: SR leukemia
MCF7 breast = system: MCF7 breast
NCI-H522 lung = system: NCI-H522 lung
MALME-3M melanoma = system: MALME-3M melanoma

Compound O=C1c2cc3ccccc3cc2C2(c3ccc(Cl)cc3)NCCN12 (stereo not drawn) has a TGI (HOP-62 NSCLC) of 86.3 µM, a TGI (PC-3 prostate) of 94.9 µM and a TGI (HCT-116 colon) of 45 µM. The TGI (NCI-H226 lung) was > 100 µM, the TGI (M14 melanoma) was 92.7 µM and the TGI (MOLT-4 leukemia) was > 100 µM. For the same compound, the TGI (COLO 205 colon) was 36.3 µM, the TGI (CCRF-CEM leukemia) was > 100 µM and the TGI (UO-31 renal) was > 100 µM. For the same compound, the TGI (A498 renal) was > 100 µM, the TGI (HCT-15 colon) was > 100 µM and the TGI (RPMI-8226 leukemia) was 98.2 µM. It also gave a TGI (NCI-H23 lung) of 64.1 µM, a TGI (SK-MEL-5 melanoma) of 40.4 µM and a TGI (RXF 393 renal) of 42.3 µM. The TGI (UACC-62 melanoma) was 55.4 µM, the TGI (SK-OV-3 ovarian) was 68.9 µM and the TGI (UACC-257 melanoma) was > 100 µM. The TGI (SF-295 CNS) was 62 µM, the TGI (MDA-MB-435) was > 100 µM and the TGI (MDA-MB-231 breast) was > 100 µM. The TGI (SK-MEL-2 melanoma) was 45.5 µM, the TGI (LOX IMVI melanoma) was 56.3 µM and the TGI (DU-145 prostate) was > 100 µM. For the same compound, the TGI (SF-268 CNS) was > 100 µM, the TGI (SN12C renal) was > 100 µM and the TGI (ACHN renal) was > 100 µM. The TGI (TK-10 renal) was > 100 µM, the TGI (SNB-19 CNS) was 68.9 µM and the TGI (HL-60(TB) leukemia) was 80 µM. The TGI (NCI-H460 lung) was > 100 µM, the TGI (T-47D breast) was > 100 µM and the TGI (BT-549 breast) was > 100 µM. For the same compound, the TGI (EKVX NSCLC) was 95.9 µM, the TGI (786-0 renal) was 99.2 µM and the TGI (SK-MEL-28 melanoma) was > 100 µM. The TGI (CAKI-1 renal) was > 100 µM, the TGI (HOP-92 NSCLC) was > 100 µM and the TGI (OVCAR-8 ovarian) was > 100 µM. The TGI (HS 578T breast) was > 100 µM, the TGI (SNB-75 CNS) was > 100 µM and the TGI (K-562 leukemia) was > 100 µM. For the same compound, the TGI (OVCAR-3 ovarian) was 53.8 µM, the TGI (U251 CNS) was > 100 µM and the TGI (KM12 colon) was 49.3 µM. The TGI (NCI/ADR-RES ovarian) was > 100 µM, the TGI (SW-620 colon) was > 100 µM and the TGI (HCC-2998 colon) was 60.4 µM. The TGI (HT29 colon) was > 100 µM, the TGI (MDA-N) was > 100 µM and the TGI (IGROV1 ovarian) was > 100 µM. The TGI (OVCAR-5 ovarian) was 81 µM, the TGI (OVCAR-4 ovarian) was > 100 µM and the TGI (A549 NSCLC) was 87.4 µM. The TGI (SF-539 CNS) was 61.5 µM, the TGI (SR leukemia) was > 100 µM and the TGI (MCF7 breast) was 77.9 µM.

In the case of C/C(=N\NC(=O)c1ccncc1)c1ccccc1Cl, the TGI (HOP-62 NSCLC) is reported as > 100 µM, the TGI (PC-3 prostate) is reported as > 100 µM and the TGI (HCT-116 colon) is reported as > 100 µM. For the same compound, the TGI (NCI-H226 lung) was > 100 µM, the TGI (M14 melanoma) was > 100 µM and the TGI (MOLT-4 leukemia) was > 100 µM. The TGI (COLO 205 colon) was > 100 µM, the TGI (CCRF-CEM leukemia) was > 100 µM and the TGI (UO-31 renal) was > 100 µM. For the same compound, the TGI (A498 renal) was > 100 µM, the TGI (NCI-H522 lung) was > 100 µM and the TGI (HCT-15 colon) was > 100 µM. The TGI (RPMI-8226 leukemia) was > 100 µM, the TGI (NCI-H23 lung) was > 100 µM and the TGI (SK-MEL-5 melanoma) was > 100 µM. The TGI (RXF 393 renal) was > 100 µM, the TGI (UACC-62 melanoma) was > 100 µM and the TGI (SK-OV-3 ovarian) was > 100 µM. The TGI (MALME-3M melanoma) was > 100 µM, the TGI (UACC-257 melanoma) was > 100 µM and the TGI (SF-295 CNS) was > 100 µM. For the same compound, the TGI (MDA-MB-435) was > 100 µM, the TGI (MDA-MB-231 breast) was > 100 µM and the TGI (SK-MEL-2 melanoma) was > 100 µM. For the same compound, the TGI (LOX IMVI melanoma) was > 100 µM, the TGI (DU-145 prostate) was > 100 µM and the TGI (SF-268 CNS) was > 100 µM. For the same compound, the TGI (SN12C renal) was > 100 µM, the TGI (ACHN renal) was > 100 µM and the TGI (TK-10 renal) was > 100 µM. The TGI (SNB-19 CNS) was > 100 µM, the TGI (HL-60(TB) leukemia) was > 100 µM and the TGI (NCI-H460 lung) was > 100 µM. For the same compound, the TGI (T-47D breast) was > 100 µM, the TGI (BT-549 breast) was > 100 µM and the TGI (EKVX NSCLC) was > 100 µM. The TGI (786-0 renal) was > 100 µM, the TGI (SK-MEL-28 melanoma) was > 100 µM and the TGI (CAKI-1 renal) was > 100 µM. The TGI (HOP-92 NSCLC) was > 100 µM, the TGI (OVCAR-8 ovarian) was > 100 µM and the TGI (HS 578T breast) was > 100 µM. For the same compound, the TGI (SNB-75 CNS) was > 100 µM, the TGI (K-562 leukemia) was > 100 µM and the TGI (OVCAR-3 ovarian) was > 100 µM. The TGI (U251 CNS) was > 100 µM, the TGI (KM12 colon) was > 100 µM and the TGI (NCI/ADR-RES ovarian) was > 100 µM. For the same compound, the TGI (SW-620 colon) was > 100 µM, the TGI (HT29 colon) was > 100 µM and the TGI (MDA-N) was > 100 µM. For the same compound, the TGI (IGROV1 ovarian) was > 100 µM, the TGI (OVCAR-5 ovarian) was > 100 µM and the TGI (OVCAR-4 ovarian) was > 100 µM. For the same compound, the TGI (A549 NSCLC) was > 100 µM, the TGI (SF-539 CNS) was > 100 µM and the TGI (SR leukemia) was > 100 µM. The TGI (MCF7 breast) was > 100 µM.

For CN1CCN(CC(=O)N2c3ccccc3Sc3cc4ccccc4cc32)CC1, the TGI (HOP-62 NSCLC) was 33 µM, the TGI (PC-3 prostate) was 27.6 µM and the TGI (HCT-116 colon) was 22.2 µM. The TGI (NCI-H226 lung) was 42.8 µM, the TGI (M14 melanoma) was 29 µM and the TGI (MOLT-4 leukemia) was 28.4 µM. For the same compound, the TGI (COLO 205 colon) was 36.2 µM, the TGI (CCRF-CEM leukemia) was 83.6 µM and the TGI (UO-31 renal) was 26.7 µM. The TGI (A498 renal) was 27.9 µM, the TGI (NCI-H522 lung) was 31.9 µM and the TGI (HCT-15 colon) was 34.7 µM. It also gave a TGI (RPMI-8226 leukemia) of 34.1 µM, a TGI (NCI-H23 lung) of 40.1 µM and a TGI (SK-MEL-5 melanoma) of 34.7 µM. For the same compound, the TGI (RXF 393 renal) was 27 µM, the TGI (UACC-62 melanoma) was 31.6 µM and the TGI (SK-OV-3 ovarian) was 30.3 µM. It also gave a TGI (MALME-3M melanoma) of 28.4 µM, a TGI (UACC-257 melanoma) of 24.5 µM and a TGI (SF-295 CNS) of 28.3 µM. For the same compound, the TGI (MDA-MB-435) was 23.7 µM, the TGI (MDA-MB-231 breast) was 27.7 µM and the TGI (SK-MEL-2 melanoma) was 31.9 µM. The TGI (LOX IMVI melanoma) was 33.4 µM, the TGI (DU-145 prostate) was 29.3 µM and the TGI (SF-268 CNS) was 25.6 µM. The TGI (SN12C renal) was 25.2 µM, the TGI (ACHN renal) was 30.3 µM and the TGI (TK-10 renal) was 29.5 µM. It also gave a TGI (SNB-19 CNS) of 35.3 µM, a TGI (HL-60(TB) leukemia) of 4.55 µM and a TGI (NCI-H460 lung) of 32.8 µM. For the same compound, the TGI (T-47D breast) was 46.1 µM, the TGI (BT-549 breast) was 30.2 µM and the TGI (EKVX NSCLC) was 25.5 µM. The TGI (786-0 renal) was 26.8 µM, the TGI (SK-MEL-28 melanoma) was 28.9 µM and the TGI (CAKI-1 renal) was 26 µM. For the same compound, the TGI (HOP-92 NSCLC) was 24.6 µM, the TGI (OVCAR-8 ovarian) was 36.5 µM and the TGI (HS 578T breast) was 28.3 µM. The TGI (SNB-75 CNS) was 27.8 µM, the TGI (K-562 leukemia) was 33.6 µM and the TGI (OVCAR-3 ovarian) was 26.1 µM. For the same compound, the TGI (U251 CNS) was 28.7 µM, the TGI (KM12 colon) was 31.8 µM and the TGI (NCI/ADR-RES ovarian) was 34.4 µM. It also gave a TGI (SW-620 colon) of 50.9 µM, a TGI (HT29 colon) of 16.4 µM and a TGI (MDA-N) of 22.4 µM. For the same compound, the TGI (IGROV1 ovarian) was 32.8 µM, the TGI (OVCAR-5 ovarian) was 29.8 µM and the TGI (OVCAR-4 ovarian) was 29.1 µM. It also gave a TGI (A549 NSCLC) of 30.3 µM, a TGI (SF-539 CNS) of 30.9 µM and a TGI (SR leukemia) of 31.2 µM. For the same compound, the TGI (MCF7 breast) was 31.6 µM.
